Consider one substance from PMC9653470 (2022).

Entries after “also recorded” stand apart in the source; their conditions may differ.

This data set is described as follows: fresh human plasma. To be noted: 37 °C, up to 24 hours.

With H2N-USPGYS-NH2, the fragment found entry was “a, major; also recorded: b, major”.
